Test results taken from patent US20230416258A1, “BENZ[…], AND PREPARATION METHOD THEREFOR AND USE THEREOF” (CHINA PHARMACEUTICAL UNIVERSITY, priority 2020, published 2023).
Where two headings read alike, the source gives them in different places.

Columns and labels:
[1] = tested on: GABA-activated Cl− current (GABAA receptor) in HEK 293T cells; test: Effect of drugs on GABA-activated current in cells by cell patch clamp; format: cell-based; details: for Enhancement percentage Emax for 2 μM GABA current (within 3-30 μM): corresponding concentration 20 μM
Procedure: Test compounds were dissolved at various concentrations in an extracellular buffer (140 mM NaCl, 4.7 mM KCl, 10 mM HEPES, 2 mM CaCl2), 10 mM glucose, 1 mM MgCl2, pH 7.4). HEK 293T cells were seeded on glass coverslips and cultured in DMEM media at 37° C. with 5% CO2 for 24 h. GABA Cl^− current was subjected to whole cell recording using an HEKA EPC 10USB patch clamp amplifier. 2 μM GABA was used for exciting Cl^− current, with the membrane potential clamped at −60 mV. The cells were treated with the test compound and 2 μM GABA simultaneously, and the induction effect on and Emax of Cl^− current in the same cell were recorded.
Maximum enhancement percentage Emax for 2 μM GABA current and corresponding concentration (μM): 100% for normal humans. The greater the percentage, the lower the corresponding concentration, and the greater the depth of anesthesia.

[2] = In vitro plasma half-life of drug; format: in vitro ADME, SD rats; details: plasma (heparin sodium); SD rat plasma, 37° C.
Procedure: Preparation of plasma: after the SD rats were fasted and kept with water for 12 h, blood was collected through orbital venous plexus. The freshly collected blood was added into a centrifuge tube containing heparin sodium and centrifuged at 5000 rpm for 10 min at 4° C. The supernatant was slowly pipetted and subpackaged. Finally, the collected SD rat plasma was sealed, marked, and stored at −20° C. for later use.
Preparation of target compound sample: the target compound was precisely weighed by an analytical balance and prepared into a stock solution at a concentration of 2 mg/mL (solvent: Vacetone:VTween 80:Vnormal saline=1:1:3) for later use.
Determination of in vitro half-life of target compound sample: 20 μL of test compound stock solution and 80 μL of rat plasma were mixed uniformly. Nine parallel ep tubes were taken, marked as corresponding test tubes of 0 min, 1 min, 2 min, 3 min, 5 min, 10 min, 15 min, 20 min, and 30 min, respectively, and placed in a water bath at 37° C. for incubation for 0 min, 1 min, 2 min, 3 min, 5 min, 10 min, 15 min, 20 min, and 30 min, respectively. 50 μL of mixed solution were taken from the corresponding ep tube at each time point, and […] of acetonitrile was added for precipitating protein. The mixture was vortexed for 10 min using a mixer and centrifuged at 12000 rpm for 15 min. Then, the supernatant was centrifuged at 12000 rpm for 10 min. The optimal detection method for the target compound in the MRM mode was determined using Intellistat software in UPLC-MS/MS, the peak area of the corresponding mass spectrum was integrated, and the plasma half-life of the compound was calculated.

[3] = tested on: SD rats; test: Induction of anesthesia in rats by continuous infusion of drug for 20 min; format: in vivo; details: initial dose 20 mg/kg bolus, maintenance dose 0.2 (mg/kg)/min for 20 min, after infusion completed
Procedure: SD rats (male, 200-280 g) were randomly grouped and subjected to administration of an initial dose by rapid bolus via the tail vein, followed by a continuous infusion with a maintenance dose for 20 min.
After the infusion was completed, the duration of the righting reflex and the time from wake-up to recovery in rats were recorded.

[4] = tested on: KM mice; test: Test for drug-induced disappearance of righting reflex in mice; format: in vivo; details: single rapid bolus via tail vein
Method in brief: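 Female KM mice (18–25 g), randomly grouped, given a single rapid bolus via tail vein. Latency (administration to loss of righting reflex) and duration (loss to recovery) recorded.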

[5] = tested on: SD rats; test: Test for drug-induced disappearance of righting reflex in rats; format: in vivo; details: single rapid bolus via tail vein
Text: In anesthetic drug experiments, latency generally refers to the time from the start of administration to the loss of consciousness of the subject. The shorter latency is preferred, indicating a rapid onset of action after administration. The duration of anesthesia generally refers to the duration of time from the loss of consciousness to the restoration of consciousness of the subject. The duration of the drug will vary from animal model to animal species. Too long anesthesia may produce adverse cardiovascular and respiratory responses, such as adverse neurological effects to the subject, including sleepiness and dizziness; meanwhile, too short duration of anesthesia may affect the anesthesia effect, causing problems such as increase of anesthesia dosage during the operation.
SD rats (male, 200-280 g) were randomly grouped and subjected to a single administration by rapid bolus via the tail vein. The latency and duration of righting reflex in the rats were recorded.

[6] = tested on: hCMEC/D3 cells; test: Rate of drug passing through in vitro blood-brain barrier (Transwell); format: in vitro ADME; details: hCMEC/D3 monolayer, compound 0.1 mg/mL
Procedure: A Transwell device (pore size: 5.0 μm) was placed in a 24-well cell culture well; then hCMEC/D3 cells at 1×10^5 cells/mL were transferred to the upper microwells of Transwell at 150 μL/well, and cell culture medium was added to the lower microwells. After the bottom was covered by a single layer of the cells, the medium in the wells was replaced with EBM-2 complete medium containing 1% FBS, and the cells were cultured in a CO2 incubator for 10 days until a fully dense single layer of the cells was formed. When a fully dense single layer of the cells was formed, the compound at 0.1 mg/mL was added to the lower medium, and after 5 min, the concentration of the compound in the upper medium was measured to calculate the permeability:
Pcompound%=Cupper compound/Clower compound×100%

[7] = read-out: Positive enhancement EC50 (μM) for 2 μM GABA-induced current, −60 mV
[8] = 2 μM GABA, −60 mV, read-out: Positive enhancement EC50 (μM) for 2 μM GABA-induced current

Structure (SMILES) | EC50 [1, 7] [µM] | Enhancement percentage Emax for 2 μM GABA current (within 3-30 μM) ([1]; −60 mV) | half-life at 0.4 mg/mL [2] [s] | Duration of anesthesia [3] [min] | Time from wake-up to recovery [3] [min] | Duration ([4]; 30 mg/kg) [min] | Latency ([4]; 30 mg/kg) [min] | Latency [5] [min] | In vitro blood-brain barrier, compound permeability at 5 min [6] [%] | Duration ([4]; 60 mg/kg) [min] | Latency ([4]; 60 mg/kg) [min] | Duration ([4]; 100 mg/kg) [min] | Latency ([4]; 100 mg/kg) [min] | EC50 [1, 8] [µM] | Duration [5] [min]
COC(=O)CC[C@@H]1N=C(c2ccccc2F)c2cc(Br)ccc2-n2c(S)nnc21 [Compound 4, methyl (S)-3-(8-bromo-6-(2-fluorophenyl)-1-mercapto-4H-benzo[f][1,2,4]triazolo[4,3-a][1,4]diazepin-4-yl)propionate] | 0.69 | 252% (20 μM) | 104 | 5.21 | 15.6 | 9.21 | 0.88 | 0.35 | 68.6 |  |  |  |  |  | 
CCCSc1nnc2n1-c1ccc(Br)cc1C(c1ccccc1Cl)=N[C@H]2CCC(=O)OC [Compound 30, methyl (S)-3-(8-bromo-6-(2-chlorophenyl)-1-(propylthio)-4H-benzo[f][1,2,4]triazolo[4,3-a][1,4]diazepin-4-yl)propionate] |  |  | 27 |  |  | 7.44 | 0.42 |  |  |  |  |  |  |  | 
COC(=O)CC[C@@H]1N=C(c2ccccc2Cl)c2cc(Cl)ccc2-n2c(SCCO)nnc21 [Compound 32, methyl (S)-3-(8-chloro-6-(2-chlorophenyl)-1-((2-hydroxyethyl)thio)-4H-benzo[f][1,2,4]triazolo[4,3-a][1,4]diazepin-4-yl)propionate] |  |  | 16.2 |  |  | 20.73 | 0.73 |  |  |  |  |  |  |  | 
COC(=O)CC[C@@H]1N=C(c2ccccc2Cl)c2cc(Br)ccc2-n2c(SCCO)nnc21 [Compound 33, methyl (S)-3-(8-bromo-6-(2-chlorophenyl)-1-((2-hydroxyethyl)thio)-4H-benzo[f][1,2,4]triazolo[4,3-a][1,4]diazepin-4-yl)propionate] | 0.44 | 279% (20 μM) | 53.4 | 17.3 | 20.2 |  |  | 0.52 | 83.4 | 6.41 | 0.21 | 12.38 | 0.22 |  | 
COC(=O)CC[C@@H]1N=C(c2ccccc2Cl)c2cc([N+](=O)[O-])ccc2-n2c(SCCN)nnc21 [Compound 37, methyl (S)-3-(8-nitro-6-(2-chlorophenyl)-1-((2-aminoethyl)thio)-4H-benzo[f][1,2,4]triazolo[4,3-a][1,4]diazepin-4-yl) propionate] |  | 267% (20 μM) |  | 6.68 | 10.5 | 7.63 | 0.49 | 0.22 | 84.6 | 7.68 | 0.21 |  |  | 0.53 | 25.1
COC(=O)CC[C@@H]1N=C(c2ccccc2F)c2cc(Cl)ccc2-n2c(SCCN3CCOCC3)nnc21 [Compound 51, methyl (S)-3-(8-chloro-6-(2-fluorophenyl)-1-((2-morpholinoethyl)thio)-4H-benzo[f][1,2,4]triazolo[4,3-a][1,4]diazepin-4-yl)propionate] | 0.41 | 304% (20 μM) |  | 8.36 | 22.6 |  |  | 0.27 | 78.6 | 8.46 | 0.25 | 14.6 | 0.16 |  | 
COC(=O)CC[C@@H]1N=C(c2ccccc2Cl)c2cc(Cl)ccc2-n2c(SCCN3CCCC3)nnc21 [Compound 119, methyl (S)-3-(8-chloro-6-(2-chlorophenyl)-1-(2-((pyrrolidin-1-yl)ethyl)thio)-4H-benzo[f][1,2,4]triazolo[4,3-a][1,4]diazepin-4-yl)propionate] |  | 278% (20 μM) |  | 12.83 | 32.7 | 30.86 | 0.46 | 0.43 | 83.3 |  |  |  |  | 0.43 | 13.27
COC(=O)CC[C@@H]1N=C(c2ccccc2Cl)c2cc(Cl)ccc2-n2c(SCC(=O)N3CCN(C)CC3)nnc21 [Compound 129, methyl (S)-3-(8-chloro-6-(2-chlorophenyl)-1-((2-(4-methylpiperazin-1-yl)2-oxyethyl)thio)-4H-benzo[f][1,2,4]triazolo[4,3-a][1,4]diazepin-4-yl)propionate] |  | 257% (20 μM) |  | 10.22 | 17.7 | 13.27 | 0.56 | 0.37 | 75.9 |  |  |  |  | 0.42 | 17.28
COC(=O)CC[C@@H]1N=C(c2ccccc2Cl)c2cc(Cl)ccc2-n2c(Sc3cn(C)cn3)nnc21 [Compound 141, methyl (S)-3-(8-chloro-6-(2-chlorophenyl)-1-((1-methyl-1H-imidazol-4-yl)thio)-4H-benzo[f][1,2,4]triazolo[4,3-a][1,4]diazepin-4-yl)propionate] | 0.61 | 295% (20 μM) |  | 13.21 | 22.19 | 8.76 | 0.74 | 0.21 | 76.6 |  |  |  |  |  | 
COC(=O)CC[C@@H]1N=C(c2ccccc2F)c2cc(Br)ccc2-n2c1n[nH]c2=S [Tautomer of compound 4, methyl (S)-3-(8-bromo-6-(2-fluorophenyl)-1-thio-2,4-dihydro-1H-benzo[f][1,2,4]triazolo[4,3-a][1,4]diazepin-4-yl) propionate] |  | 238% (20 μM) |  | 4.84 | 10.3 | 2.95 | 0.38 | 0.48 | 75.8 |  |  |  |  | 0.65 | 15.4
